From ChEMBL document CHEMBL5385846, “Discovery and development of palmatine analogues as anti-NASH agents by activating farnesoid X receptor (FXR)” (Eur J Med Chem, 2023)
Calls of active or inactive are those of the source. No cut-off for these calls is given here.

Columns and labels:
Mus musculus [1] = assay: Hepatoprotective activity in CDAHFD induced C57BL/6N mouse liver injury model assessed as decrease in LDH level at 200 mg/kg,po qd administration for 4 weeks; type: functional, organism-based
Mus musculus [2] = assay: Hepatoprotective activity in CDAHFD induced C57BL/6N mouse liver injury model assessed as reduction in free cholesterol level at 200 mg/kg,po qd administration for 4 weeks; type: functional, organism-based
LX-2 [3] = assay: Antifibrotic activity in TGF-beta1 induced human LX2 cells assessed as downregulation of TGF-beta1 mRNA expression incubated for 24 hrs by qRT-PCR analysis; type: functional, cell-based
Mus musculus [4] = assay: Antifibrotic activity in CDAHFD induced non-alcoholic steatohepatitis C57BL/6N mouse model assessed as downregulation of TIMP1 protein expression at 200 mg/kg,po qd administration for 4 weeks by Western blotting analysis; type: functional, organism-based
Mus musculus [5] = assay: Antifibrotic activity in CDAHFD induced non-alcoholic steatohepatitis C57BL/6N mouse model assessed as downregulation of COL1A1 mRNA expression at 200 mg/kg,po qd administration for 4 weeks by qRT-PCR analysis; type: functional, organism-based
[6] = Acute toxicity in Kunming mouse assessed as effect on […] level at 250 to 1000 mg/kg,po administration; type: organism-based; details: in vivo, dose 250-1000 mg/kg
Rattus norvegicus [7] = assay: Hepatoprotective activity in bile duct ligation induced Sprague-Dawley rat liver injury model assessed as decrease in AST level at 200 mg/kg,po qd administration for 14 days; type: functional, organism-based; details: time 14.0 day
Mus musculus [8] = assay: Anti-inflammatory activity in CDAHFD induced C57BL/6N mouse liver injury model assessed as downregulation of IL-1beta protein expression in liver at 200 mg/kg,po qd administration for 4 weeks by Western blotting analysis; type: functional, organism-based
[9] = Metabolic stability in Sprague-Dawley rat liver microsomes assessed as intrinsic clearance at 1 micromol/L measured upto 60 mins in presence of NADPH by LC-MS/MS analysis; type: ADME, Microsome; details: 1 h, 1 µM, dose 1 µmol/L
LX-2 [10] = assay: Antifibrotic activity in TGF-beta1 induced human LX2 cells assessed as downregulation of alpha-SMA mRNA expression incubated for 24 hrs by qRT-PCR analysis; type: functional, cell-based
[11] = Half life in Sprague-Dawley rat liver microsomes at 1 micromol/L measured upto 60 mins in presence of NADPH by LC-MS/MS analysis; type: ADME, Microsome; details: dose 1 µmol/L
Mus musculus [12] = assay: Anti-inflammatory activity in CDAHFD induced C57BL/6N mouse liver injury model assessed as downregulation of MCP1 mRNA expression in liver at 200 mg/kg,po qd administration for 4 weeks by qRT-PCR analysis; type: functional, organism-based
LX-2 [13] = assay: Antifibrotic activity in TGF-beta1 induced human LX2 cells assessed as downregulation of alpha-SMA protein expression incubated for 24 hrs by western blotting analysis; type: functional, cell-based
Mus musculus [14] = assay: Hepatoprotective activity in CDAHFD induced C57BL/6N mouse liver injury model assessed as reduction in hepatic steatosis at 200 mg/kg,po qd administration for 4 weeks by hematoxylin and eosin staining based assay; type: functional, organism-based
THP-1 [15] = assay: Anti-inflammatory activity in PMA differentiated human THP-1 cells assessed as downregulation of IL-1beta protein expression at 10 micromol/L incubated for 4 hrs followed by LPS and Nigericin addition for 3.5 hrs by Western blotting analysis; type: functional, cell-based; details: dose 10.0 µmol/L, time 7.5 hrs
Mus musculus [16] = assay: Antifibrotic activity in CDAHFD induced non-alcoholic steatohepatitis C57BL/6N mouse model assessed as downregulation of MMP2 mRNA expression at 200 mg/kg,po qd administration for 4 weeks by qRT-PCR analysis; type: functional, organism-based
Mus musculus [17] = assay: Hepatoprotective activity in CDAHFD induced C57BL/6N mouse liver injury model assessed as decrease in total cholesterol level at 200 mg/kg,po qd administration for 4 weeks; type: functional, organism-based
Mus musculus [18] = assay: Hepatoprotective activity in CDAHFD induced C57BL/6N mouse liver injury model assessed as reduction in fatty droplets at 200 mg/kg,po qd administration for 4 weeks by Oil red-O staining based microscopic analysis; type: functional, organism-based
Mus musculus [19] = assay: Antifibrotic activity in CDAHFD induced non-alcoholic steatohepatitis C57BL/6N mouse model assessed as downregulation of TIMP1 mRNA expression at 200 mg/kg,po qd administration for 4 weeks by qRT-PCR analysis; type: functional, organism-based
[20] = Acute toxicity in Kunming mouse assessed as effect on AST level at 250 to 1000 mg/kg,po administration; type: organism-based; details: in vivo, dose 250-1000 mg/kg
[21] = Metabolic stability in human liver microsomes assessed as microsomal intrinsic clearance at 1 micromol/L measured upto 60 mins in presence of NADPH by LC-MS/MS analysis; type: ADME, Microsome; details: dose 1 µmol/L, read-out: CLH
Mus musculus [22] = assay: Hepatoprotective activity in CDAHFD induced C57BL/6N mouse liver injury model assessed as increase in HDL level at 200 mg/kg,po qd administration for 4 weeks; type: functional, organism-based
Rattus norvegicus [23] = assay: Antifibrotic activity in bile duct ligation induced Sprague-Dawley rat liver fibrosis model assessed as downregulation of TIMP1 mRNA expression at 200 mg/kg,po qd administration for 14 days by qRT-PCR analysis; type: functional, organism-based; details: time 14.0 day
LX-2 [24] = assay: Antifibrotic activity in TGF-beta1 induced human LX2 cells assessed as downregulation of COL1A1 mRNA expression incubated for 24 hrs by qRT-PCR analysis; type: functional, cell-based
Mus musculus [25] = assay: Hepatoprotective activity in CDAHFD induced C57BL/6N mouse liver injury model assessed as decrease in total bilirubin level at 200 mg/kg,po qd administration for 4 weeks; type: functional, organism-based
[26] = Metabolic stability in CD-1 mouse liver microsomes assessed as intrinsic clearance at 1 micromol/L measured upto 60 mins in presence of NADPH by LC-MS/MS analysis; type: ADME, Microsome; details: 1 h, 1 µM, dose 1 µmol/L
[27] = Metabolic stability in human liver microsomes assessed as compound remaining at 1 micromol/L measured upto 60 mins in presence of NADPH by LC-MS/MS analysis; type: ADME, Microsome; details: dose 1 µmol/L, read-out: Stability
Rattus norvegicus [28] = assay: Antifibrotic activity in bile duct ligation induced Sprague-Dawley rat liver fibrosis model assessed as downregulation of TGF-beta1 mRNA expression at 200 mg/kg,po qd administration for 14 days by qRT-PCR analysis; type: functional, organism-based; details: time 14.0 day
[29] = Metabolic stability in Sprague-Dawley rat liver microsomes assessed as compound remaining at 1 micromol/L measured upto 60 mins in presence of NADPH by LC-MS/MS analysis; type: ADME, Microsome; details: dose 1 µmol/L, read-out: Stability
THP-1 [30] = assay: Anti-inflammatory activity in PMA differentiated human THP-1 cells assessed as downregulation of IL-1beta protein expression at 5 micromol/L incubated for 4 hrs followed by LPS and Nigericin addition for 3.5 hrs by Western blotting analysis; type: functional, cell-based; details: dose 5.0 µmol/L, time 7.5 hrs
[31] = Acute toxicity in Kunming mouse assessed as effect on ALT level at 250 to 1000 mg/kg,po administration; type: organism-based; details: in vivo, dose 250-1000 mg/kg
[32] = Metabolic stability in Sprague-Dawley rat liver microsomes assessed as microsomal intrinsic clearance at 1 micromol/L measured upto 60 mins in presence of NADPH by LC-MS/MS analysis; type: ADME, Microsome; details: dose 1 µmol/L, read-out: CLH
Mus musculus [33] = assay: Hepatoprotective activity in CDAHFD induced C57BL/6N mouse liver injury model assessed as decrease in AST level at 200 mg/kg,po qd administration for 4 weeks; type: functional, organism-based

COc1cc2c(cc1OC)-c1cc3ccc(OC)c(OCc4cccc(C)c4)c3c[n+]1CC2.[Br-]
Activity (Mus musculus [1]): Active | Activity (Mus musculus [2]): Active | Activity (LX-2 [3]): Dose-Dependent Effect | Activity (Mus musculus [4]): Active | Activity (Mus musculus [5]): Active | Activity [6]: Non-Toxic | Activity (Rattus norvegicus [7]): Active | Activity (Mus musculus [8]): Active | CLint,scaled [9]: 338 mL/min/kg | Activity (LX-2 [10]): Dose-Dependent Effect | half-life at 1 µM [11]: 7.4 min | Activity (Mus musculus [12]): Active | Activity (LX-2 [13]): Dose-Dependent Effect | Activity (Mus musculus [14]): Active | Activity (THP-1 [15]): Active | Activity (Mus musculus [16]): Active | Activity (Mus musculus [17]): inactive | Activity (Mus musculus [18]): Active | Activity (Mus musculus [19]): Active | Activity [20]: Non-Toxic | microsomal CLint at 1 µM [21]: 26 µL/min/mg | Activity (Mus musculus [22]): Active | Activity (Rattus norvegicus [23]): Active | Activity (LX-2 [24]): Dose-Dependent Effect | Activity (Mus musculus [25]): Active | CLint,scaled [26]: 744 mL/min/kg | remaining at 1 h, 1 µM [27]: 44.1% | Activity (Rattus norvegicus [28]): Active | remaining at 1 h, 1 µM [29]: 0.4% | Activity (THP-1 [30]): Active | Activity [31]: Non-Toxic | microsomal CLint at 1 µM [32]: 188 µL/min/mg | Activity (Mus musculus [33]): Active
